The results in this text go back to EP0953355A1, “REMEDY FOR AUTOIMMUNE DISEASES” (Sankyo Company, Limited, priority 1996, dated 1997).

The test system of data set [1] is islet β cells. The experiment in a line: Inhibitory effect on lymphocyte invasion (streptozotocin-induced autoimmunity to islet β cells). Format: in vivo, DBA/2 mice. Conditions: for islet cells invaded by lymphocytes in all mice: 0.1% in feed; for Degree of lymphocyte invasion 0 to 40% / Degree of lymphocyte invasion 40 to 60%: percentage of mice within this range, oral, streptozotocin 40 mg/kg i.p. for 5 days. The method, then:
Streptozotocin was administered intraperitoneally for 5 days to 8-week-old DBA/2 mice at 40 mg/kg to induce autoimmunity of islet β cells. […] Mice in the control group were given only powdered feed during the same period.
Blood samples were collected from the tail vein before the start, during and on the final day of streptozotocin administration. The blood samples were centrifuged to obtain plasma, and the glucose levels of the obtained plasma were measured with a glucose analyzer (Sino-Test Co., Ltd.). In the figure, glucose levels (mg/dl) are plotted on the vertical axis, while time (days) is plotted on the horizontal axis. [drawing]
The mice used in the experiment were sacrificed following measurement of glucose levels on the final day of pioglitazone administration. The pancreas of each animal was excised and fixed with bouian solution. Thin tissue slices were prepared from the pancreas and the degree of lymphocyte invasion into islet cells was observed by a light microscope. […] Moreover, the degree of lymphocyte invasion was classified as either 0 to 40% or 40 to 60%. The number of mice classified within each range was illustrated in Table 3 as a percentage (%) relative to the total number of mice in the pioglitazone administration group and control groups.
Streptozotocin was administered intraperitoneally for 5 days to 8-week-old DBA/2 mice at 40 mg/kg to induce autoimmunity of islet β cells. […] Control mice were given only powdered feed during the same period.
Blood samples were collected from the tail vein before the start, during and on the final day of streptozotocin administration. The blood samples were centrifuged to obtain plasma, and the glucose levels of the obtained plasma were measured with a glucose analyzer (Sinotest). In the figure, glucose levels (mg/dl) are plotted on the vertical axis, while time (days) is plotted on the horizontal axis. [drawing]
The mice used in the experiment were sacrificed following measurement of glucose levels on the final day of drug administration. The pancreas of each animal was excised and fixed with bouian solution. Thin tissue slices were prepared from the pancreas and the degree of lymphocyte invasion into islet cells was observed by a light microscope. […] Moreover, the degree of lymphocyte invasion of each mouse was classified as either 0 to 40% or 40 to 60%.

The subject of data set [2] is Lewis rats. Nature of the data set: Inhibitory effect on bone destruction induced by adjuvant arthritis. It counts as in vivo. The settings on record: for inhibition of bone destruction as compared with the control group / bone destruction compared with the control group: Wilcoxon test; for Bone Destruction Score (points): right hind paw, day 21, maximum score 8, groups of 5; for Bone Destruction Inhibition Rate (%): versus control group. The method, then:
The inhibitory effect was determined in a similar manner to that of Winder, et al. (Arthritis Rheum., Vol. 12, p. 472, 1969). Using Lewis rats (females, age 8-10 weeks, body weights: 160-200 g, Japan Charles River) in groups of 5 each, adjuvant (heat-killed Mycobacterium butyricum)was injected intradermally into the right hind paw of each rat at 100 µg/0.05 ml/paw to induce arthritis. The rats were orally administered troglitazone at 0.2%, pioglitazone at 0.05% and BRL-49653 at 0.005%, respectively, by mixing in powdered feed until day 20 taking the day of injection of adjuvant to be day 0. Rats in a control group were given powdered feed only during the same period. The rats were sacrificed on day 21. After excising the right hind paw (the injected paw), soft X-rays were taken of each paw to observe and score the state of bone destruction. Bone destruction was scored by evaluating into 5 ranks consisting of 0, 1, 2, 3 and 4, assigning 0 points in the absence of bone destruction (normal) and increasing scores depending on the state of joint destruction, bone destruction, deformation and osteophyte formation. The worst state of such bone disorders was assigned a score of 4. The bone disorders were scored at two locations, the calcaneus and the location extending from the tarsal bones to the metatarsal bones. Thus, the score for each animal was determined by calculating the total score for the two locations and the maximum score was 8 points.
The inhibitory effect was determined according to the methods of Winder, et al. (Arthritis Rheum., Vol. 12, p. 472, 1969). Using Lewis rats (females, age 8-10 weeks, body weights: 160 to 200 g, Japan Charles River) in groups of 5 each, adjuvant (heat-killed Mycobacterium butyricum)was injected intradermally into the sole of the right hind paw of each rat at 100 µg/0.05 ml/paw to induce arthritis. The rats were orally administered Compound A at 0.1% and Compound B at 0.1%, respectively, by mixing in powdered feed until day 20 taking the day of injection of adjuvant to be day 0. Rats in a control group were given powdered feed only during the same period. The rats were sacrificed on day 21. After excising the right hind paw (the injected paw), soft X-rays were taken of each paw to observe and score the state of bone destruction. Bone destruction was scored by evaluating into 5 ranks consisting of 0, 1, 2, 3 and 4, assigning 0 points in the absence of bone destruction (normal) and increasing scores depending on the state of joint destruction, bone destruction, deformation and osteophyte formation. The worst state of bone destruction was assigned a score of 4. Bone destruction was scored at two locations, the calcaneus and the location extending from the tarsal bones to the metatarsal bones. Thus, the score for each animal was determined by calculating the total score for the two locations and the maximum score was 8 points.

For data set [3], the system named is ddY mice. It counts as in vivo. Conditions: 300 mg/kg oral, three ddY mice (males), observed for 5 days. The method, then: Acute toxicity was determined in accordance with conventional methods. […] 2, 3,4 and 10, all acute toxicities of these compounds were determined to be 300 mg/kg and more after oral administration of them.
[4] abbreviates: Example 4, from Fig. 3 (plasma glucose levels) and Table 4.
Where [5] appears, read: 0.1% in F2 powdered feed (BRL-49653: 125 mg/kg/day, Compound A: 94 mg/kg/day), 31 days.
[6] abbreviates: Example 2, in powdered feed until day 20: troglitazone 0.2%, pioglitazone 0.05%, BRL-49653 0.005%.
The mark [7] stands for this setting: Example 5, 0.1% in powdered feed until day 20.
Setting [8] is: 0.2% in F2 powdered feed (236 mg/kg/day), 38 days.
Where [9] appears, read: 0.2% in F2 powdered feed (240 mg/kg/day), 38 days.

As for `CN(CCOc1ccc(CC2SC(=O)NC2=O)cc1)c1ccccn1` (centres unmarked) [BRL-49653, 5-{4-[2-(N-methyl-N-(2-pyridyl)amino)ethoxy]benzyl}thiazolidine-2,4-dione], the “islet cells invaded by lymphocytes in all mice” value in data set [1] (Example 4, 31 days) is “less than 40%”. Moreover, the “onset of autoimmune disease” value in data set [1] (setting [4]) is “suppresses the onset of autoimmune disease”. Moreover, in data set [1] (setting [5]), the “Degree of lymphocyte invasion 0 to 40%” value is 100% and the “Degree of lymphocyte invasion 40 to 60%” value is given as 0%. The “inhibition of bone destruction as compared with the control group” value (“inhibition … compared with the control group” for short) in data set [2] (Example 2) was “exhibited inhibition of bone destruction”. In addition, in data set [2] (setting [6]), the “Bone Destruction Score (points)” value was determined as 4.8 ± 1.2 points and the “Bone Destruction Inhibition Rate (%)” value came to 35.1%.
Consider `CC(=NOCCOc1ccc(CC2SC(=O)NC2=O)cc1)c1ccc(-c2ccccn2)cc1` (centres unmarked) [Compound A, 5-[4-[2-[[[1-[4-(2-pyridyl)phenyl]ethylidene]amino]oxy]ethoxy]benzyl]thiazolidine-2,4-dione], for which the “islet cells invaded by lymphocytes in all mice” value in data set [1] (Example 4, 31 days) was “less than 40%”. Also, the “onset of autoimmune disease” value in data set [1] (setting [4]) was “suppresses the onset of autoimmune disease”. In addition, in data set [1] (setting [5]), the “Degree of lymphocyte invasion 0 to 40%” value came to 100% and the “Degree of lymphocyte invasion 40 to 60%” value came to 0%. Further, in data set [2] (setting [7]), the “Bone Destruction Score (points)” value was 6.6 ± 0.7 points and the “Bone Destruction Inhibition Rate (%)” value is recorded as 17.5%. The “bone destruction compared with the control group” value in data set [2] (Example 5) is listed as “tended to be inhibited”.
Regarding `COc1ccc2nc(COc3ccc(CC4SC(=O)NC4=O)cc3)n(C)c2c1` (centres unmarked) [Compound B, 5-[4-(6-methoxy-1-methylbenzimidazol-2-ylmethoxy)benzyl]thiazolidine-2,4-dione], in data set [2] (setting [7]), the “Bone Destruction Score (points)” value is recorded as 6.6 ± 0.8 points and the “Bone Destruction Inhibition Rate (%)” value stood at 17.5%. In addition, the “bone destruction compared with the control group” value in data set [2] (Example 5) is “tended to be inhibited”.
Turning to `CCc1ccc(CCOc2ccc(CC3SC(=O)NC3=O)cc2)nc1` (centres unmarked) [Pioglitazone, 5-{4-[2-(5-ethyl-2-pyridyl)ethoxy]benzyl}-2,4-thiazolidinedione], in data set [1] (Example 3, 0.2% in feed (236 mg/kg/day), 38 days), the “degree of lymphocyte invasion into islet cells in all mice” value is listed as at most 40%. Moreover, in data set [1] (Example 3, on the basis of Fig. 2 (plasma glucose levels) and Table 3), the “onset of autoimmune disease” value was “suppresses the onset of autoimmune disease”. Also, in data set [1] (setting [8]), the “Degree of lymphocyte invasion 0 to 40%” value came out at 100% and the “Degree of lymphocyte invasion 40 to 60%” value was 0%. Moreover, the “inhibition … compared with the control group” value in data set [2] (Example 2) is “exhibited inhibition of bone destruction”. In addition, in data set [2] (setting [6]), the “Bone Destruction Score (points)” value is on record as 4.4 ± 1.0 points and the “Bone Destruction Inhibition Rate (%)” value was determined as 40.5%.
For `Cc1c(C)c2c(c(C)c1O)CCC(C)(COc1ccc(CC3SC(=O)NC3=O)cc1)O2` (centres unmarked) [Troglitazone, 5-[4-(6-hydroxy-2,5,7,8-tetramethylchroman-2-ylmethoxy)benzyl]thiazolidine-2,4-dione], the survival result in data set [3] is reported as “All animals survived”. For the same compound, in data set [1] (Example 1, 0.2% in feed (240 mg/kg/day), 38 days), the “degree of lymphocyte invasion into islet cells in all mice” value was at most 40%. In addition, the “onset of autoimmune disease” value in data set [1] (Example 1, on the basis of Fig. 1 (plasma glucose levels) and Table 1) is “suppresses the onset of autoimmune disease”. In addition, in data set [1] (setting [9]), the “Degree of lymphocyte invasion 0 to 40%” value came to 100% and the “Degree of lymphocyte invasion 40 to 60%” value is recorded as 0%. For the same compound, the “inhibition … compared with the control group” value in data set [2] (Example 2) is recorded as “significant inhibition of bone destruction”. In data set [2] (setting [6]), the “Bone Destruction Score (points)” value was found to be 5.4 ± 0.2 points and the “Bone Destruction Inhibition Rate (%)” value is 27.0%.
